From paper PMC3149845 (The Journal of neuroscience : the official journal of the …, 2011)
Numbering of substitutions follows the chain as printed. Entries after “also recorded” stand apart in the source; their conditions may differ. Peptide text beside a SMILES is read from it.

Tests used:
[1] = biological target: T1, hTas1R2:S40T/D142E+hTas1R3 (Homo sapiens, UniProt Q8TE23, D142E/S40T); assay: Ca2+ mobilization, mutated human receptor; type: cell-based; conditions: for calcium response to sweetener: aspartame 10mM, neotame 1mM, sucralose 2 mM, compared with hTas1R2/hTas1R3; for response in dose-response experiment: versus hTas1R2+hTas1R3
T1 sequence (Q8TE23 20-839 S40T/D142E): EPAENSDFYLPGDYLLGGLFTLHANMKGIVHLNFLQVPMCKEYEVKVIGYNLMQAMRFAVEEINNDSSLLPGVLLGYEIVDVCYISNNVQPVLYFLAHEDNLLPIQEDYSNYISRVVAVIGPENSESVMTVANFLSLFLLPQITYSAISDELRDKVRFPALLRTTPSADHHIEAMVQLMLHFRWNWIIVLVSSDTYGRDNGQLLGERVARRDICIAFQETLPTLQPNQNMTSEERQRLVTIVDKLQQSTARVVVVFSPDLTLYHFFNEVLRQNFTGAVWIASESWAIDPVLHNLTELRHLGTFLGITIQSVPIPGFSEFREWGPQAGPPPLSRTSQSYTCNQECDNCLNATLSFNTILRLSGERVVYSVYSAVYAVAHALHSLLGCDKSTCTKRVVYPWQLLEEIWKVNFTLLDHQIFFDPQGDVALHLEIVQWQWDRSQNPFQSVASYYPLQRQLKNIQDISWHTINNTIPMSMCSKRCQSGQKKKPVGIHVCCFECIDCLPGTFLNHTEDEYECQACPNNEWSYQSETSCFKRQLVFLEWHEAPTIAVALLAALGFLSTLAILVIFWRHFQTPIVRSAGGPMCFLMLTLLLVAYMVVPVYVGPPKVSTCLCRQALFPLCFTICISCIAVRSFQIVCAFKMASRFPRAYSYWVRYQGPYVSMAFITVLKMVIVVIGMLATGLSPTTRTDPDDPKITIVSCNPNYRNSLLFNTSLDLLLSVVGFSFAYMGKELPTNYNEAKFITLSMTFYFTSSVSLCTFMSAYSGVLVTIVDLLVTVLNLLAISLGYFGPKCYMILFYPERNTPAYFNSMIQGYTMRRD
T1 sequence (Q7RTX0 21-852 partner): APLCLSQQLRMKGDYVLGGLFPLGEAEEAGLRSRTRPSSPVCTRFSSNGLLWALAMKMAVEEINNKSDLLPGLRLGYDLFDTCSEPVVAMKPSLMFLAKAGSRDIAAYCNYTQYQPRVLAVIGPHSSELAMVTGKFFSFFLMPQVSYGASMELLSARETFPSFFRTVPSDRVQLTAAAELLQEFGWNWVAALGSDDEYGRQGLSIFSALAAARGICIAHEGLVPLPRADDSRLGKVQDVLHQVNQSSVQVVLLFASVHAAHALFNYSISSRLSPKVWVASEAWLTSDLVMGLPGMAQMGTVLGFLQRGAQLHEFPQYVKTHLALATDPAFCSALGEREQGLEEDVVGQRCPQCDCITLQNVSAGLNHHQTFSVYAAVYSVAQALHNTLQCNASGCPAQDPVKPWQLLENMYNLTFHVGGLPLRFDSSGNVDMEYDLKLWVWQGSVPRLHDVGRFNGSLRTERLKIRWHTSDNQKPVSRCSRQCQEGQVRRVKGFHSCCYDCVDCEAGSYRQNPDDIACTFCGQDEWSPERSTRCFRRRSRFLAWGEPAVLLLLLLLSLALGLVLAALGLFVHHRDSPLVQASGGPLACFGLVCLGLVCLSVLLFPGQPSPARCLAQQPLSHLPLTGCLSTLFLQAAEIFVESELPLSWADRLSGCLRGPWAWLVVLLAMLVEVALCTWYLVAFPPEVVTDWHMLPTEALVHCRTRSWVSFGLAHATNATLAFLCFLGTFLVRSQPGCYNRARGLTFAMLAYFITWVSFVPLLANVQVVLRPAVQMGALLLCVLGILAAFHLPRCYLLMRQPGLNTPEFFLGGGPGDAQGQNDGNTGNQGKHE

[2] = biological target: T2, hTas1R2:I67S/D142E+hTas1R3 (Homo sapiens, UniProt Q8TE23, D142E/I67S); assay: Ca2+ mobilization, mutated human receptor; type: cell-based; conditions: for calcium response to sweetener: aspartame 10mM, neotame 1mM, sucralose 2 mM, compared with hTas1R2/hTas1R3; for response in dose-response experiment: versus hTas1R2+hTas1R3
T2 sequence (Q8TE23 20-839 I67S/D142E): T1 sequence (Q8TE23 20-839 S40T/D142E) with T21S, I48S
T2 sequence (Q7RTX0 21-852 partner): T1 sequence (Q7RTX0 21-852 partner)

[3] = HEK293E cells with Gα16-gust44, dose-response, calcium mobilization
[4] = ΔF/F normalized to maximum response of hTas1R2/hTas1R3 to neotame

SMILES: COC(=O)[C@H](Cc1ccccc1)NC(=O)[C@@H](N)CC(=O)O [aspartame, L-α-aspartly-L-phenylalanine methyl ester] (H-Asp-Phe-OMe)
- calcium response to sweetener [1]: abolished
- response in dose-response experiment ([1]; dose-response): no responses
- calcium response to sweetener [2]: abolition
- response in dose-response experiment ([2]; dose-response): no responses

SMILES: COC(=O)[C@H](Cc1ccccc1)NC(=O)[C@H](CC(=O)O)NCCC(C)(C)C [neotame]
- EC50 [1, 3]: 1.4 mM
- calcium response to sweetener [1]: significantly reduced; also recorded: reduced the response to neotame by half
- response in dose-response experiment ([1]; dose-response): weaker responses
- Bottom (B) of sigmoid dose-response fit [1, 4]: 1.387
- Top (T) of sigmoid dose-response fit [1, 4]: 61.12
- EC50 [2, 3]: 4.7 mM
- calcium response to sweetener [2]: significant reduction
- response in dose-response experiment ([2]; dose-response): weaker responses
- Bottom (B) of sigmoid dose-response fit [2, 4]: −1.772
- Top (T) of sigmoid dose-response fit [2, 4]: 51.81
